The values that follow come from the NIST ThermoML archive (doi:10.1021/acs.jced.8b01200).

SMILES strings stand for the structures. ± gives the expanded uncertainty stated by the source.

Data set [1] is described as follows: Molar enthalpy of transition or fusion. The note with it: Crystal; DSC.
For data set [2] the following is noted: Crystal; DSC.

As for `CCCCCCCCCCCCCCCC(=O)OCC(COC(=O)CCCCCCCCCCCCCCC)OC(=O)CCCCCCCCCCCCCCC` [1,2,3-propanetriyl tri(hexadecanoate)], the “Molar enthalpy of transition or fusion” value in data set [1] stood at 37.9 ± 0.789 kcal/mol. In addition, the Triple point temperature in data set [2] is 336.8 ± 1.4 K.
The corresponding values for `CCCCCCCCCCCCCC(=O)OCC(COC(=O)CCCCCCCCCCCCC)OC(=O)CCCCCCCCCCCCC` [1,2,3-propanetriyl tri(tetradecanoate)] are 34.5 ± 0.741 kcal/mol and 329.4 ± 1.4 K.
The corresponding values for `Cc1ccc(C(C)C)c(O)c1` [3-methyl-6-isopropylphenol] are 3.11 ± 0.502 kcal/mol and 321.9 ± 1.4 K.
The corresponding values for `CC(C)[C@@H]1CC[C@@H](C)C[C@H]1O` [L-menthol] are 2.85 ± 0.454 kcal/mol and 314.4 ± 2.4 K.
Turning to `CCCCCCCCCCCCCCCCCC(=O)OCC(COC(=O)CCCCCCCCCCCCCCCCC)OC(=O)CCCCCCCCCCCCCCCCC` [glycerol trioctadecanoate], the “Molar enthalpy of transition or fusion” value in data set [1] was 44 ± 0.884 kcal/mol. Besides, the Triple point temperature in data set [2] was 343.8 ± 1.4 K.
